Experiments:
[1] = system: TEC-family kinases (ITK, TEC, and TXK); experiment: Cellular IL-2 production assay in Jurkat cells (CD3/CD28 stimulation, ELISA); type: cell-based; conditions: Homo sapiens, read-out: IC50, IL2-Production
Description: The cellular IL-2 Production assay was carried out using Jurkat cells.

Human CD4 T cell = Human CD4 T cell proliferation assay (Cell Titer Glo); type: cell-based; conditions: 96 h, anti-CD3/anti-CD28 beads, 4 days
Description: In the Human CD4 T cell assay, primary human CD4+ T cells isolated from a leukopak were cultured in the presence of anti-CD^3/anti-CD28 beads to stimulate T cell proliferation.

TEC = target: T1, TEC (Homo sapiens, UniProt P42680); experiment: Biochemical TEC assay (Caliper LabChip)
T1 sequence (P42680 1-631): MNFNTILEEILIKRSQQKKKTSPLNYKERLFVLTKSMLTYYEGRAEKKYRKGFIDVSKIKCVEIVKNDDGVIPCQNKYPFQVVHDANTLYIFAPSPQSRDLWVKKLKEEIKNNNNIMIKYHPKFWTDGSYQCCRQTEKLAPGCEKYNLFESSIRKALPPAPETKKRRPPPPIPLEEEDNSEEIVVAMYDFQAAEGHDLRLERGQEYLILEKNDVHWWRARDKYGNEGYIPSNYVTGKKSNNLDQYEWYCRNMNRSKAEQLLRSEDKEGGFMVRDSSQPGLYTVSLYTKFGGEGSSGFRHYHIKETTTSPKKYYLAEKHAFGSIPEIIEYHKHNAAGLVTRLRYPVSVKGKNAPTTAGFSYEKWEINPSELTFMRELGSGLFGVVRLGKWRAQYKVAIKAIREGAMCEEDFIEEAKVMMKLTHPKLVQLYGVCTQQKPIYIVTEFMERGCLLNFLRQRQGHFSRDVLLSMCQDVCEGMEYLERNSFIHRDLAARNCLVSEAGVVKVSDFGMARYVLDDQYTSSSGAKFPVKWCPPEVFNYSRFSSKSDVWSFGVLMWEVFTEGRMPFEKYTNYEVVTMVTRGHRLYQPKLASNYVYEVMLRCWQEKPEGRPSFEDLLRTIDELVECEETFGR

TXK = target: T2, TXK (Homo sapiens, UniProt P42681); experiment: Biochemical TXK assay (Caliper LabChip)
T2 sequence (P42681 1-527): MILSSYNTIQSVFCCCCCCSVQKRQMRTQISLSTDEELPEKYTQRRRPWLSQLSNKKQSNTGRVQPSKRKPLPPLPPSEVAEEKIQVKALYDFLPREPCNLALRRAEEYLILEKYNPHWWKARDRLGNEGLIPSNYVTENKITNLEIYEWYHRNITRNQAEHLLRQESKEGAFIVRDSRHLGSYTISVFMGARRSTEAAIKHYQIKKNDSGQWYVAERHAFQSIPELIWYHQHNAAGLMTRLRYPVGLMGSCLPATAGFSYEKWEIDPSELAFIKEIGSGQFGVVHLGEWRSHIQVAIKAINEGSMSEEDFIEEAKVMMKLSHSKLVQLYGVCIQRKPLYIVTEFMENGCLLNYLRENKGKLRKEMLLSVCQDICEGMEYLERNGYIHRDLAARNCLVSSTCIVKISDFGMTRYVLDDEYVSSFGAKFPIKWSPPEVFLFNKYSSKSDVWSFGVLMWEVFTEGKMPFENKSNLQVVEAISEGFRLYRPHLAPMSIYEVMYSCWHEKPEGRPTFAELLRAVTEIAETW
Description: The biochemical assays for ITK, TEC and TXK were carried out using Caliper Life Sciences' proprietary LabChip™ technology. This technology uses a microfluidic chip to measure the conversion of a fluorescent peptide substrate to a phosphorylated product. The product conversions were determined in the presence of various compound concentrations and IC50 values were calculated.

[2] = system: anti-KLH IgM and anti-KLH IgG antibodies; experiment: T-cell dependent antibody response (TDAR) assay in rats, KLH immunization; type: in vivo, rat; conditions: for anti-KLH IgG, mean percent difference compared to vehicle controls / anti-KLH IgM, mean percent difference compared to vehicle controls: 30 mg/kg/day oral
Description: T-cells play critical roles in immune regulation. T-cell Tec family kinases are important players in T-cell function, which in turn can modulate immune function. COMPOUND A was tested in a T-cell dependent antibody response (TDAR) assay, a frequently used functional assessment of the immune system. […] On study days 11 and 25 for the main study animals and days 28 and 42 for the recovery group, animals received 300 μg of KLH (Keyhole Limpet Hemocyanin) antigen. Samples for serology assessment of anti-KLH IgM and anti-KLH IgG antibodies (study days 19, 21, 23, 25 and 36 prior to dosing from the main study animals; recovery days 42 and 53 prior to KLH injection from the recovery animals) were collected. Immunomodulatory responses in COMPOUND A-treated animals following KLH immunization were noted when values were compared to concurrent vehicle controls. […] The decreases were also observed in mean anti-KLH IgM values on study days 21, 23, 25 (primary response, time course) and day 36 (post boosting) for female rats. For anti-KLH IgG antibodies, decreases in mean concentration were apparent on study days 19, 21, 23 and 25 for both male and female rats. On study day 36, decreases in mean concentration were detected in female rats. Recovery following withdrawal of COMPOUND A treatment was noted. The COMPOUND A-related decrease of anti-KLH antibody production in both male and female rats was reversible. This included both primary response-anti-KLH IgM, and isotype switch measured by secondary anti-KLH IgG production as indicated by values that were similar to concurrent controls at the recovery sampling time points (recovery day 42 and 53).

Mouse B cell = experiment: cells; conditions: 72 h, read-out: IC50, Mouse B cell proliferation
Description: Cells were incubated at 37° C. in the presence of various concentrations of compound. After 3 days, cell viability was measured using Cell Titer Glo.

BTK (TMD-8) = experiment: cells; conditions: Homo sapiens, TMD8, 72 h, read-out: IC50, BTK (TMD-8) proliferation
Description: After 3 days, cell viability was measured using Cell Titer Glo.

[3] = female rats, study day 36 (post boosting)

Cc1cc(C(=O)Nc2nc3cccc(Cl)c3n2[C@@H]2CCCCN(C(=O)/C=C/CN(C)C)C2)ccn1 [COMPOUND A, (R,E)-N-(7-chloro-1-(1-(4-(dimethylamino)but-2-enoyl)azepan-3-yl)-1H-benzo[d]imidazol-2-yl)-2-methylisonicotinamide]
IC50 [1]: 21 nM
IC50 (Human CD4 T cell): 140 nM
IC50, TEC biochemical (TEC): single digit nM potency
IC50, TXK biochemical (TXK): single digit nM potency
anti-KLH IgG, mean percent difference compared to vehicle controls ([2]; female rats, study day 19): −96%
anti-KLH IgM, mean percent difference compared to vehicle controls ([2]; female rats, study day 19): −88%
anti-KLH IgG, mean percent difference compared to vehicle controls ([2]; female rats, study day 21): −98%
anti-KLH IgM, mean percent difference compared to vehicle controls ([2]; female rats, study day 21): −75%
anti-KLH IgG, mean percent difference compared to vehicle controls ([2]; female rats, study day 23): −97%
anti-KLH IgM, mean percent difference compared to vehicle controls ([2]; female rats, study day 23): −71%
anti-KLH IgG, mean percent difference compared to vehicle controls ([2]; female rats, study day 25): −96%
anti-KLH IgM, mean percent difference compared to vehicle controls ([2]; female rats, study day 25): −63%
anti-KLH IgG, mean percent difference compared to vehicle controls [2, 3]: −69%
anti-KLH IgM, mean percent difference compared to vehicle controls [2, 3]: −67%
reversibility of decrease of anti-KLH antibody production after withdrawal of treatment ([2]; male and female rats, 30 mg/kg/day, recovery days 42 and 53): reversible
anti-KLH IgG, mean percent difference compared to vehicle controls ([2]; male rats, study day 19): −78%
anti-KLH IgM, mean percent difference compared to vehicle controls ([2]; male rats, study day 19): −67%
anti-KLH IgG, mean percent difference compared to vehicle controls ([2]; male rats, study day 21): −84%
anti-KLH IgG, mean percent difference compared to vehicle controls ([2]; male rats, study day 23): −80%
anti-KLH IgG, mean percent difference compared to vehicle controls ([2]; male rats, study day 25): −83%
IC50 (Mouse B cell): 295 nM
IC50 (BTK (TMD-8)): 224 nM

C=CC(=O)N1CCC[C@@H](n2nc(-c3ccc(Oc4ccccc4)cc3)c3c(N)ncnc32)C1 [Ibrutinib, ibrutinib, reference compound]
IC50 [1]: 284 nM
